Measured values: paper doi:10.1101/2020.08.04.236877v1 (biorxiv, 2020)

Columns and labels:
[1] = target: Transporter, Norepinephrine (NET) (Homo sapiens, UniProt P23975); assay: radioligand binding assay; settings: read-out: % inhibition at 10 μM
[2] = target: Histamine H2 (Homo sapiens, UniProt P25021); assay: radioligand binding assay; settings: read-out: % inhibition or stimulation at 10 μM
[3] = target: Androgen (Testosterone) (Homo sapiens, UniProt P10275); assay: radioligand binding assay; settings: read-out: % inhibition at 10 μM
[4] = target: Transporter, Dopamine (DAT) (Homo sapiens, UniProt Q01959); assay: radioligand binding assay; settings: read-out: % inhibition at 10 μM
[5] = target: Serotonin 5-HT2B (Homo sapiens, UniProt P41595); assay: radioligand binding assay; settings: read-out: % inhibition at 10 μM
[6] = target: Platelet Activating Factor (PAF) (Homo sapiens, UniProt P25105); assay: biochemical; settings: read-out: % inhibition or stimulation (human)
[7] = target: Epidermal Growth Factor (EGF) (Homo sapiens, UniProt P00533); assay: biochemical; settings: read-out: % inhibition or stimulation (human)
[8] = target: Glucocorticoid (Homo sapiens, UniProt P04150); assay: biochemical; settings: read-out: % inhibition or stimulation (human)
[9] = target: Adenosine A1 (Homo sapiens, UniProt P30542); assay: biochemical; settings: read-out: % inhibition or stimulation (human)
[10] = target: Adenosine A2A (Homo sapiens, UniProt P29274); assay: biochemical; settings: read-out: % inhibition or stimulation (human)
[11] = target: Adenosine A3 (Homo sapiens, UniProt P0DMS8); assay: biochemical; settings: read-out: % inhibition or stimulation (human)
[12] = target: Adrenergic α1A (Homo sapiens, UniProt P35348); assay: biochemical; settings: read-out: % inhibition or stimulation (human)
[13] = target: Adrenergic α1B (Homo sapiens, UniProt P35368); assay: biochemical; settings: read-out: % inhibition or stimulation (human)
[14] = target: Adrenergic α1D (Homo sapiens, UniProt P25100); assay: biochemical; settings: read-out: % inhibition or stimulation (human)
[15] = target: Adrenergic α2A (Homo sapiens, UniProt P08913); assay: biochemical; settings: read-out: % inhibition or stimulation (human)
[16] = target: Adrenergic β1 (Homo sapiens, UniProt P08588); assay: biochemical; settings: read-out: % inhibition or stimulation (human)
[17] = target: Adrenergic β2 (Homo sapiens, UniProt P07550); assay: biochemical; settings: read-out: % inhibition or stimulation (human)
[18] = target: Bradykinin B1 (Homo sapiens, UniProt P46663); assay: biochemical; settings: read-out: % inhibition or stimulation (human)
[19] = target: Bradykinin B2 (Homo sapiens, UniProt P30411); assay: biochemical; settings: read-out: % inhibition or stimulation (human)
[20] = target: Cannabinoid CB1 (Homo sapiens, UniProt P21554); assay: biochemical; settings: read-out: % inhibition or stimulation (human)
[21] = target: Dopamine D1 (Homo sapiens, UniProt P21728); assay: biochemical; settings: read-out: % inhibition or stimulation (human)
[22] = target: Dopamine D2S (Homo sapiens, UniProt P14416); assay: biochemical; settings: read-out: % inhibition or stimulation (human)
[23] = target: Dopamine D3 (Homo sapiens, UniProt P35462); assay: biochemical; settings: read-out: % inhibition or stimulation (human)
[24] = target: Dopamine D4.4 (Homo sapiens, UniProt P21917); assay: biochemical; settings: read-out: % inhibition or stimulation (human)
[25] = target: Endothelin ETA (Homo sapiens, UniProt P25101); assay: biochemical; settings: read-out: % inhibition or stimulation (human)
[26] = target: Endothelin ETB (Homo sapiens, UniProt P24530); assay: biochemical; settings: read-out: % inhibition or stimulation (human)
[27] = target: Estrogen ERα (Homo sapiens, UniProt P03372); assay: biochemical; settings: read-out: % inhibition or stimulation (human)
[28] = target: Histamine H1 (Homo sapiens, UniProt P35367); assay: biochemical; settings: read-out: % inhibition or stimulation (human)
[29] = target: Histamine H3 (Homo sapiens, UniProt Q9Y5N1); assay: biochemical; settings: read-out: % inhibition or stimulation (human)
[30] = target: Interleukin IL-1 R1 (Homo sapiens, UniProt P14778); assay: biochemical; settings: read-out: % inhibition or stimulation (human)
[31] = target: Leukotriene, Cysteinyl CysLT1 (Homo sapiens, UniProt Q9Y271); assay: biochemical; settings: read-out: % inhibition or stimulation (human)
[32] = target: Melatonin MT1 (Homo sapiens, UniProt P48039); assay: biochemical; settings: read-out: % inhibition or stimulation (human)
[33] = target: Muscarinic M1 (Homo sapiens, UniProt P11229); assay: biochemical; settings: read-out: % inhibition or stimulation (human)
[34] = target: Muscarinic M2 (Homo sapiens, UniProt P08172); assay: biochemical; settings: read-out: % inhibition or stimulation (human)
[35] = target: Muscarinic M3 (Homo sapiens, UniProt P20309); assay: biochemical; settings: read-out: % inhibition or stimulation (human)
[36] = target: Neuropeptide Y Y1 (Homo sapiens, UniProt P25929); assay: biochemical; settings: read-out: % inhibition or stimulation (human)
[37] = target: Neuropeptide Y Y2 (Homo sapiens, UniProt P49146); assay: biochemical; settings: read-out: % inhibition or stimulation (human)
[38] = target: Nicotinic Acetylcholine α1, Bungarotoxin (Homo sapiens, UniProt P02708); assay: biochemical; settings: read-out: % inhibition or stimulation (human)
[39] = target: Nicotinic Acetylcholine α3β4 (Homo sapiens, UniProt P30926+P32297); assay: biochemical; settings: read-out: % inhibition or stimulation (human)
[40] = target: Opiate µ (OP3, MOP) (Homo sapiens, UniProt P35372); assay: biochemical; settings: read-out: % inhibition or stimulation (human)
[41] = target: Opiate δ1 (OP1, DOP) (Homo sapiens, UniProt P41143); assay: biochemical; settings: read-out: % inhibition or stimulation (human)
[42] = target: Opiate κ (OP2, KOP) (Homo sapiens, UniProt P41145); assay: biochemical; settings: read-out: % inhibition or stimulation (human)
[43] = target: Potassium Channel hERG (Homo sapiens, UniProt Q12809); assay: in vitro
[44] = target: Prostanoid EP4 (Homo sapiens, UniProt P35408); assay: biochemical; settings: read-out: % inhibition or stimulation (human)
[45] = target: Serotonin (5-Hydroxytryptamine) 5-HT1A (Homo sapiens, UniProt P08908); assay: biochemical; settings: read-out: % inhibition or stimulation (human)
[46] = target: Serotonin (5-Hydroxytryptamine) 5-HT3 (Homo sapiens, UniProt P46098); assay: biochemical; settings: read-out: % inhibition or stimulation (human)
[47] = target: Sigma σ1 (Homo sapiens, UniProt Q99720); assay: biochemical; settings: read-out: % inhibition or stimulation (human)
[48] = target: Tachykinin NK1 (Homo sapiens, UniProt P25103); assay: biochemical; settings: read-out: % inhibition or stimulation (human)
[49] = target: Transporter, Serotonin (5- Hydroxytryptamine) (SERT) (Homo sapiens, UniProt P31645); assay: biochemical; settings: read-out: % inhibition or stimulation (human)

Leukotriene, Cysteinyl CysLT1, sequence (Q9Y271 whole entry): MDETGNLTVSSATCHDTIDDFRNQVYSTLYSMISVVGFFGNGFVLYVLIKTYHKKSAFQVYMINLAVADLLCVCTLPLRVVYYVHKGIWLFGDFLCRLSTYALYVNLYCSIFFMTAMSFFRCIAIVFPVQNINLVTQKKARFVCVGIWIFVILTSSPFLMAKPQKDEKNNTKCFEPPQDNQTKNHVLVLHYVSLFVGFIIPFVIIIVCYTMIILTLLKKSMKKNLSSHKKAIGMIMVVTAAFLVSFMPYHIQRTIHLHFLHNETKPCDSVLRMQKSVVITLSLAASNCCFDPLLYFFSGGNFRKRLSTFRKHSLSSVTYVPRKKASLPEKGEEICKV
Endothelin ETA, sequence (P25101 whole entry): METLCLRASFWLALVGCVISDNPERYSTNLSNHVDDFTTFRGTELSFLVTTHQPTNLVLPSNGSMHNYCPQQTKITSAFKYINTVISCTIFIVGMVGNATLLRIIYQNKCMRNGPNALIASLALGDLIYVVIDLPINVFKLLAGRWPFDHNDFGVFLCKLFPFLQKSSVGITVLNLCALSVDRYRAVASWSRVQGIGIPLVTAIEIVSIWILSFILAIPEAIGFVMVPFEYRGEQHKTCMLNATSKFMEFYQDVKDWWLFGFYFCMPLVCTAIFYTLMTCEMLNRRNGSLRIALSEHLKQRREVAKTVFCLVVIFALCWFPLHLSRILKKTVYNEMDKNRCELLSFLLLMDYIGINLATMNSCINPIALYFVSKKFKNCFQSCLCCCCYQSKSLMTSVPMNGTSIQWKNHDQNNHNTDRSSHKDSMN
Melatonin MT1, sequence (P48039 whole entry): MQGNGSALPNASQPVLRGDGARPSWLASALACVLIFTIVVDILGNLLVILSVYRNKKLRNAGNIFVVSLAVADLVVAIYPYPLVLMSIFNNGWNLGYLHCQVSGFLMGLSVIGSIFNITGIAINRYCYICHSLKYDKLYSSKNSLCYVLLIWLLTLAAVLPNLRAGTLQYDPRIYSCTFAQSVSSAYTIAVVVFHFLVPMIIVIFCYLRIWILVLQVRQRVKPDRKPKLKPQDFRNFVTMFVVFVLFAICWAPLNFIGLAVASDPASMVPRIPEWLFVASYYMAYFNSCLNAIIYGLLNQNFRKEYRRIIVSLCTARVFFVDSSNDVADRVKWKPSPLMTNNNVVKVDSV
Transporter, Norepinephrine (NET), sequence (P23975 whole entry): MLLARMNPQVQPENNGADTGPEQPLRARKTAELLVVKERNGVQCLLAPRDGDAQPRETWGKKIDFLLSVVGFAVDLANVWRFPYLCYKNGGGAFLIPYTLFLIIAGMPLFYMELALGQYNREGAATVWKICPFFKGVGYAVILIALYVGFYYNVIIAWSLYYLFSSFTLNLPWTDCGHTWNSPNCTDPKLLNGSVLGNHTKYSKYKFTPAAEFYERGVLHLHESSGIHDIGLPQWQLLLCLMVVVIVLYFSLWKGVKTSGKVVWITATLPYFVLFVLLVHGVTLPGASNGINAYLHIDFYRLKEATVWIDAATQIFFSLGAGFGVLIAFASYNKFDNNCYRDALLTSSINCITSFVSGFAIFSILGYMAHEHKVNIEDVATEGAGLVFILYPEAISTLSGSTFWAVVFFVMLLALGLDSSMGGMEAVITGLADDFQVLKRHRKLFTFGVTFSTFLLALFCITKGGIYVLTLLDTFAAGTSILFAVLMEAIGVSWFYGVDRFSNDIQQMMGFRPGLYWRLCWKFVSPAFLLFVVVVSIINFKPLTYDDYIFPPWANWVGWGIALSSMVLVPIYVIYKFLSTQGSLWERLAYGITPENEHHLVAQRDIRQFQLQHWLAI
Endothelin ETB, sequence (P24530 whole entry): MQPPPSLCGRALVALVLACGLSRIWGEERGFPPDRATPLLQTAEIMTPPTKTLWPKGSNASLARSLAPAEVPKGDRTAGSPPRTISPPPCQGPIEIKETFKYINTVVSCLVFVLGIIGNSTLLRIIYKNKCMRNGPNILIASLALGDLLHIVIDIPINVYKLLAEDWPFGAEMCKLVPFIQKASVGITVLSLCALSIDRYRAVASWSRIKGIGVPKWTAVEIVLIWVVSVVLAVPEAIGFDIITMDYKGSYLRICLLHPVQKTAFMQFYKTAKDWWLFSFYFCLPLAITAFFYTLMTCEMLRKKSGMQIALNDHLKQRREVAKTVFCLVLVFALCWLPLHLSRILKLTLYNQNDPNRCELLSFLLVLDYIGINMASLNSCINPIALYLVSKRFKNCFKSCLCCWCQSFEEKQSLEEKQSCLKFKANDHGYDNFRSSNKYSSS
Muscarinic M2, sequence (P08172 whole entry): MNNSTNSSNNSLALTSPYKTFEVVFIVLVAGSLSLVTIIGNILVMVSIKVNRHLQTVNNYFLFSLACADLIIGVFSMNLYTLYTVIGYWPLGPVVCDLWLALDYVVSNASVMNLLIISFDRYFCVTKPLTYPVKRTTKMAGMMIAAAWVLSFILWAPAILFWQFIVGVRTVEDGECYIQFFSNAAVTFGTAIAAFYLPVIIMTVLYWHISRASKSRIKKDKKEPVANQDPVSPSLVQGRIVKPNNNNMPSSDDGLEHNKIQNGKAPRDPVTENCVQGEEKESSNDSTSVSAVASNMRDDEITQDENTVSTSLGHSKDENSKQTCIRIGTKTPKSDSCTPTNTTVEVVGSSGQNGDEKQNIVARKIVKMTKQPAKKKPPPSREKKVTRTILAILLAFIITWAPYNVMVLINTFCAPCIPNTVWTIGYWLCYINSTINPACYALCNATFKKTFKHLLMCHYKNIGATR
Dopamine D4.4, sequence (P21917 whole entry): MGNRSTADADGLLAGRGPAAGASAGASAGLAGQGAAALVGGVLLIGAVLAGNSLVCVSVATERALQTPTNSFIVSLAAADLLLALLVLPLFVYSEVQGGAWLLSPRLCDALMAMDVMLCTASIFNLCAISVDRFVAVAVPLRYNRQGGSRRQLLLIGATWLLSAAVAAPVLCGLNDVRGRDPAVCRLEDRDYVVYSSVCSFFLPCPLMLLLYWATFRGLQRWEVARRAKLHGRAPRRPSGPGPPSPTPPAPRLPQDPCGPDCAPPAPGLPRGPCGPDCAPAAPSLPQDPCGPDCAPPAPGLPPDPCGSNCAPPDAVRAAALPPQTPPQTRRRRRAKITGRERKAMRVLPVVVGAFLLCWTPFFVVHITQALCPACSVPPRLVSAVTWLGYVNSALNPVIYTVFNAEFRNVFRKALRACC
Estrogen ERα, sequence (P03372 whole entry): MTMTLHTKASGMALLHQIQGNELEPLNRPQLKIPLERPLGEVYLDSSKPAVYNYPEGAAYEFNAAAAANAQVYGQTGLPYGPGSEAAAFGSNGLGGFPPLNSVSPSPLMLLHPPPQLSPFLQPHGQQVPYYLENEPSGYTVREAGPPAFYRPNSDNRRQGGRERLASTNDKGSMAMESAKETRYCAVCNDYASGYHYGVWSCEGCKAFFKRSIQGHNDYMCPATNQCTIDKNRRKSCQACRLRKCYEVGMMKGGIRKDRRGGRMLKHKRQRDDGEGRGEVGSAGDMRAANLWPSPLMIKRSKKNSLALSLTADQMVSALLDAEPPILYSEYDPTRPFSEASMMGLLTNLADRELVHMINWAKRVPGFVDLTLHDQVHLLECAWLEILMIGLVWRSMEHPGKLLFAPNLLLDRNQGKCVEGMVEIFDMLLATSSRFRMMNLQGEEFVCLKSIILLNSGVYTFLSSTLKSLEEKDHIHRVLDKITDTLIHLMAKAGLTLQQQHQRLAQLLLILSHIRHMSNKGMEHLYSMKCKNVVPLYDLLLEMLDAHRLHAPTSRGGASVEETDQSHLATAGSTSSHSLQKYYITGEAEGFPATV
Histamine H1, sequence (P35367 whole entry): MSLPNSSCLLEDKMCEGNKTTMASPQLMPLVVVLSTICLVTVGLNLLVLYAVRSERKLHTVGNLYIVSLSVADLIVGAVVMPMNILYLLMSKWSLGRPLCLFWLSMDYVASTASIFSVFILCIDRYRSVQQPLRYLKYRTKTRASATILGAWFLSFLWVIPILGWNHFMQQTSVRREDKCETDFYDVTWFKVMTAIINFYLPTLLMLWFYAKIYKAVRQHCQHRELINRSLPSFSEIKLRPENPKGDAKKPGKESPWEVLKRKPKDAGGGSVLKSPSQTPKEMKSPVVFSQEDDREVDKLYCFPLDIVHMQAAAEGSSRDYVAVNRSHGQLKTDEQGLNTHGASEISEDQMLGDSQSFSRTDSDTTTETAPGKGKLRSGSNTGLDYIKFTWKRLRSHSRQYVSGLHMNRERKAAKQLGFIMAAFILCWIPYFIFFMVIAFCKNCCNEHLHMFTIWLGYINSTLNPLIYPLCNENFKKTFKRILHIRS
Adrenergic α1A, sequence (P35348 whole entry): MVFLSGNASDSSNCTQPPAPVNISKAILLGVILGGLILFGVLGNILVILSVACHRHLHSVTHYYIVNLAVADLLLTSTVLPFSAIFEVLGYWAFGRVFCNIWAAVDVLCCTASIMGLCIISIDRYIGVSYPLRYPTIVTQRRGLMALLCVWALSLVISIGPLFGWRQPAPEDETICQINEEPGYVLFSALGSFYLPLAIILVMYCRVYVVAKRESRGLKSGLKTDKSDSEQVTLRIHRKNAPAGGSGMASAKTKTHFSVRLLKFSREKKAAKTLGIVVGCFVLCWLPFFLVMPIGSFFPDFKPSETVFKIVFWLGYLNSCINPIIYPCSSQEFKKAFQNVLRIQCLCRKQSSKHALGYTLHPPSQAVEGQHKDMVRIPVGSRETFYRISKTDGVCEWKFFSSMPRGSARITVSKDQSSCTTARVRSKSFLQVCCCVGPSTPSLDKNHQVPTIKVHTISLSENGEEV
Adenosine A3, sequence (P0DMS8 whole entry): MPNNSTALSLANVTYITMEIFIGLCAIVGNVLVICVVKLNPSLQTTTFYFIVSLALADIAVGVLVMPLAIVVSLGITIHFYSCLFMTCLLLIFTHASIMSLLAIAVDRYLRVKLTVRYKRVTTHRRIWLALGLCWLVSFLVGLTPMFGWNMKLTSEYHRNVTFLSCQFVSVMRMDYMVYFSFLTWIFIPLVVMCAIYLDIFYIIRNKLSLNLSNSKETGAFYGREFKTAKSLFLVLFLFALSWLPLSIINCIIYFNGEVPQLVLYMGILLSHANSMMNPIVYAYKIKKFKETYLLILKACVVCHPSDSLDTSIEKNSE

Question: Which results are given for `CC(C)(C)c1ccc(C2=C(/C=N/O)CCC2)cc1` [8n, (E)-2-(4-(tert-butyl)phenyl)cyclopent-1-ene-1-carbaldehyde oxime]?
Answer: inhibition at 10 µM [1]: 75%; inhibition at 10 µM [2]: -54%; inhibition at 10 µM [3]: 79%; inhibition at 10 µM [4]: 86%; inhibition at 10 µM [5]: 63%; inhibition at 10 µM [6]: -14%; inhibition at 10 µM [7]: 2%; inhibition at 10 µM [8]: -4%; inhibition at 10 µM [9]: 33%; inhibition at 10 µM [10]: 16%; inhibition at 10 µM [11]: 45%; inhibition at 10 µM [12]: 5%; inhibition at 10 µM [13]: -15%; inhibition at 10 µM [14]: 7%; inhibition at 10 µM [15]: 14%; inhibition at 10 µM [16]: 4%; inhibition at 10 µM [17]: 12%; inhibition at 10 µM [18]: -3%; inhibition at 10 µM [19]: -27%; inhibition at 10 µM [20]: 20%; inhibition at 10 µM [21]: 30%; inhibition at 10 µM [22]: 12%; inhibition at 10 µM [23]: 23%; inhibition at 10 µM [24]: -15%; inhibition at 10 µM [25]: 11%; inhibition at 10 µM [26]: 0%; inhibition at 10 µM [27]: 6%; inhibition at 10 µM [28]: 42%; inhibition at 10 µM [29]: 0%; inhibition at 10 µM [30]: 19%; inhibition at 10 µM [31]: 25%; inhibition at 10 µM [32]: -3%; inhibition at 10 µM [33]: 0%; inhibition at 10 µM [34]: 7%; inhibition at 10 µM [35]: 9%; inhibition at 10 µM [36]: -6%; inhibition at 10 µM [37]: -11%; inhibition at 10 µM [38]: 0%; inhibition at 10 µM [39]: -1%; inhibition at 10 µM [40]: 9%; inhibition at 10 µM [41]: 7%; inhibition at 10 µM [42]: 0%; inhibition at 10 µM [43]: 25%; inhibition at 10 µM [44]: 34%; inhibition at 10 µM [45]: -42%; inhibition at 10 µM [46]: -5%; inhibition at 10 µM [47]: 33%; inhibition at 10 µM [48]: -2%; inhibition at 10 µM [49]: 13%
